According to patent publication US20240238218A1, “[…] A […] ACTIVE COMPOUND AND METHOD OF PREPARATION THEREOF” (GW Research Limited, priority 2021, published 2024):

Experiments:
[1] = system: mouse model of generalised seizure (tonic hind limb extensor convulsions); assay: Maximal electroshock seizure threshold (MEST) test in the mouse
Protocol: The efficacy of the novel resorcinol according to the compound of Formula I was tested in a mouse model of generalised seizure, the maximal electroshock seizure threshold (MEST) test.
(§1) In the MEST test the ability of a drug to alter the seizure threshold current required to induce hind limb tonic extensor convulsions is measured according to an “up and down” method of shock titration (Kimball et al., 1957). An increase in seizure threshold is indicative of anti-convulsant effect.
(§2) The ability of a test compound to alter the stimulus intensity, expressed as current (mA), required to induce the presence of tonic hind limb extensor convulsions, is assessed in the MEST.
(§3) All animals were weighed at the beginning of the study and randomly assigned to treatment groups based on a mean distribution of body weight across groups.
The first animal within a treatment group was given a shock at the expected or estimated CC50 current. For subsequent animals, the current was lowered or raised depending on the convulsions outcome from the preceding animal, in intervals of 5 mA.
(§4) Data generated from each treatment group were used to calculate the CC50±SEM values for the treatment group.
Vehicle: (5% ethanol, 5% Kolliphor® EL, 90% Saline) was prepared as follows: 2 mL of ethanol, 2 mL of Kolliphor® EL were warmed to 60° C., in 36 mL of saline (1:1:18).
The test compound, described herein as Compound I, is as shown as Formula I. Test compound was administered at 1, 5, 20, 50, 100 and 200 mg/kg (i.p.) in a 1:2:17 ethanol:solutol:0.9% saline formulation.
(§5) The data for each treatment group were recorded as the number of +'s and 0's at each current level employed and this information is then used to calculate the CC50 value (current required for 50% of the animals to show seizure behaviour)±standard error.
(§6) Test compound effects were also calculated as percentage change in CC50 from the vehicle control group.
(§7) Significant difference between drug-treated animals and controls were assessed according to Litchfield and Wilcoxon (1949).

[2] = system: mouse model of generalised seizure (tonic hind limb extensor convulsions); assay: mini-MEST (maximal electroshock seizure threshold, minimal sample sizes) test in the mouse; conditions: 50 mg/kg i.p., 30 min post dose
Protocol: The maximal electroshock seizure threshold (MEST) test is widely utilized preclinically to evaluate pro- or anti-convulsant properties of test compounds (Loscher et al., 1991).
as §1, §2, §3
The first animal within a treatment group was given a shock at the expected or estimated CC50 current. For subsequent animals, the current was lowered or raised depending on the convulsions outcome from the preceding animal in log scale intervals.
as §4
Vehicle: (5% ethanol, 10% solutol in 85% Saline) was prepared as follows: 1 mL of ethanol, 2 mL of solutol were warmed to 60° C., in 17 mL of saline (1:2:17).
The test compound, described herein as Compound I, is as shown as Formula I. Test compound was administered at 50 mg/kg (i.p.) in a 1:2:17 ethanol:solutol:0.9% saline formulation.
as §5, §6, §7

[3] = 20 mg/kg i.p., 30 min post dose
[4] = 50 mg/kg i.p., 30 min post dose
[5] = 100 mg/kg i.p., 60 min post dose
[6] = 200 mg/kg i.p., 60 min post dose

With `C=C(C)[C@@H]1CC(O)C(C)=C[C@H]1c1c(O)cc(Br)cc1O` (single isomer, unassigned) [Compound I] the “% change from vehicle (CC50)” value ([1]; 1 mg/kg i.p., 15 min post dose) was 32%, the “CC50 +/− SEM” value ([1]; 1 mg/kg i.p., 15 min post dose) was 31.3 ± 1.5 mA and the “% change from vehicle (CC50)” value ([1]; 5 mg/kg i.p., 15 min post dose) was 45%. The “CC50 +/− SEM” value ([1]; 5 mg/kg i.p., 15 min post dose) was 34.2 ± 1.5 mA, the “% change from vehicle (CC50)” value [1, 3] was 202% and the “CC50 +/− SEM” value [1, 3] was 71.5 ± 1.0 mA. For the same compound, the “% change from vehicle (CC50)” value [1, 4] was 650%, the “CC50 +/− SEM” value [1, 4] was 177.5 ± 0.7 mA and the “% change from vehicle (CC50)” value [1, 5] was 1157%. For the same compound, the “CC50 +/− SEM” value [1, 5] was 297.5 ± 0.7 mA, the “% change from vehicle (CC50)” value [1, 6] was greater than 1168% and the “CC50 +/− SEM” value [1, 6] was greater than 300.0 mA. The “CC50 +/− SEM” value [2] was greater than 114 mA and the “tonic hindlimb convulsions in treatment group” value ([2]; 6 animals) was “did not have any convulsions”.
